Data on 17 molecules can be found in ChEMBL document CHEMBL1147715, “Gatifloxacin derivatives: synthesis, antimycobacterial activities, and inhibition of Mycobacterium tuberculosis DNA gyrase” (Bioorg Med Chem Lett, 2006).

Experiment [1] deals with Vero. As to the kind of experiment: Cytotoxicity against Vero cell line at 62.5 ug/ml after 72 hrs. It is filed as functional, cell-based. To be noted: Chlorocebus sabaeus.
In experiment [2] the test system is Mycobacterium tuberculosis. Briefly: Antimycobacterial activity against Mycobacterium tuberculosis H37Rv. In kind it is functional.
The nature of experiment [3]: Inhibition of Mycobacterium tuberculosis DNA gyrase.
For experiment [4], the system named is Mycobacterium tuberculosis. As to the kind of experiment: Activity against Mycobacterium tuberculosis ATCC 35801 in CD1 mouse at 50 mg/kg assessed as decrease in bacterial load in spleen relative to control. In kind it is functional.
The subject of experiment [5] is Mycobacterium tuberculosis. Briefly: Activity against Mycobacterium tuberculosis ATCC 35801 in CD1 mouse at 50 mg/kg assessed as decrease in bacterial load in lung relative to control. It is filed as functional.
Experiment [6] concerns Mycobacterium tuberculosis. Briefly: Selectivity index (IC50/MIC). In kind it is functional.

Structures are written as SMILES. ≈ marks a conversion by molar mass, not a printed value. A value given as a limit tells only on which side of the number the result lay.

A word on the MIC: it is the least concentration at which growth counts as inhibited. What is called IC50 is the point on the concentration scale where inhibition reaches its midpoint. Read a low IC50 as higher potency. Consider `COc1c(N2CCN(Cn3c(O)c(/N=N/C(N)=O)c4cc(Cl)ccc43)C(C)C2)c(F)cc2c(=O)c(C(=O)O)cn(C3CC3)c12` (centres undefined), for which, in experiment [1], the Activity result is “Not toxic”. This molecule also yielded an MIC in experiment [2] of 0.39 µg/mL (≈ 0.623 µM). Besides, in experiment [3], the concentration for half-maximal inhibition (IC50) turned out to be 4 µg/mL (≈ 6.39 µM).
Regarding `COc1c(N2CCN(Cn3c(O)c(/N=N/C(N)=O)c4cc(C)ccc43)C(C)C2)c(F)cc2c(=O)c(C(=O)O)cn(C3CC3)c12` (centres undefined), in experiment [1], the Activity result was “Not toxic”. The molecule also came in with an MIC in experiment [2] of 0.39 µg/mL (≈ 0.644 µM). Moreover, the IC50 in experiment [3] was 4.5 µg/mL (≈ 7.43 µM).
As for `COc1c(N2CCN(Cn3c(O)c(/N=N/C(N)=O)c4cc(F)ccc43)C(C)C2)c(F)cc2c(=O)c(C(=O)O)cn(C3CC3)c12` (centres undefined), the Activity result in experiment [1] is “Not toxic”. In experiment [2], this molecule had a minimum inhibitory concentration (MIC) of 0.2 µg/mL (≈ 0.328 µM). Moreover, in experiment [3], the IC50 was 4 µg/mL (≈ 6.56 µM).
Taken in the same sequence, the figures for `COc1c(N2CCN(Cn3c(O)c(/N=N/C(=N)S)c4ccccc43)C(C)C2)c(F)cc2c(=O)c(C(=O)O)cn(C3CC3)c12` (centres undefined) were “Not toxic”, 0.2 µg/mL (≈ 0.329 µM) and 5 µg/mL (≈ 8.23 µM).
Taken in the same sequence, the figures for `COc1c(N2CCN(Cn3c(O)c(/N=N/C(=N)S)c4cc(F)ccc43)C(C)C2)c(F)cc2c(=O)c(C(=O)O)cn(C3CC3)c12` (centres undefined) were “Not toxic”, 0.1 µg/mL (≈ 0.16 µM) and 8 µg/mL (≈ 12.8 µM).
In the case of `COc1c(N2CCN(CN3C(=O)/C(=N\c4ccc(S(=O)(=O)Nc5ncccn5)cc4)c4cc(Cl)ccc43)C(C)C2)c(F)cc2c(=O)c(C(=O)O)cn(C3CC3)c12` (centres undefined), the Activity entry in experiment [1] is “Not toxic”. Further, it took 0.1 µg/mL (≈ 0.125 µM) to inhibit growth in experiment [2] (MIC). In experiment [3], this molecule showed a concentration for half-maximal inhibition (IC50) of 6 µg/mL (≈ 7.49 µM).
In the case of `COc1c(N2CCN(Cn3c(O)c(/N=N/C(N)=O)c4ccccc43)C(C)C2)c(F)cc2c(=O)c(C(=O)O)cn(C3CC3)c12` (centres undefined), the Log10 cfu in experiment [4] was 5.08; in experiment [5], 4.26. Also, the Activity entry in experiment [1] is “Not toxic”. In addition, the lowest concentration to inhibit growth in experiment [2] (MIC) was 0.0125 µg/mL (≈ 0.0211 µM). The molecule further yielded a Selectivity index in experiment [6] above 1250. In experiment [3], this molecule had a half-inhibitory concentration (IC50) of 3 µg/mL (≈ 5.07 µM).
For `COc1c(N2CCN(CN3C(=O)/C(=N\c4ccc(S(=O)(=O)Nc5ncccn5)cc4)c4ccccc43)C(C)C2)c(F)cc2c(=O)c(C(=O)O)cn(C3CC3)c12` (centres undefined), in experiment [1], the Activity result is “Not toxic”. The molecule further showed a minimum inhibitory concentration (MIC) in experiment [2] of 0.2 µg/mL (≈ 0.261 µM). This molecule also showed a half-inhibitory concentration (IC50) in experiment [3] of 8 µg/mL (≈ 10.4 µM).
The like results for `COc1c(N2CCN(Cn3c(O)c(/N=N/C(=O)c4ccncc4)c4cc(C)ccc43)C(C)C2)c(F)cc2c(=O)c(C(=O)O)cn(C3CC3)c12` (centres undefined) were, in that order, “Not toxic”, 0.78 µg/mL (≈ 1.17 µM) and 5.5 µg/mL (≈ 8.24 µM).
The like results for `COc1c(N2CCN(Cn3c(O)c(/N=N/C(=N)S)c4cc(C)ccc43)C(C)C2)c(F)cc2c(=O)c(C(=O)O)cn(C3CC3)c12` (centres undefined) were, in that order, “Not toxic”, 0.78 µg/mL (≈ 1.25 µM) and 10 µg/mL (≈ 16.1 µM).
Regarding `COc1c(N2CCN(Cn3c(O)c(/N=N/C(=O)c4ccncc4)c4cc(F)ccc43)C(C)C2)c(F)cc2c(=O)c(C(=O)O)cn(C3CC3)c12` (centres undefined), the Activity entry in experiment [1] is “Not toxic”. In experiment [2], inhibition of growth (MIC) required 0.78 µg/mL (≈ 1.16 µM).
Consider `COc1c(N2CCNC(C)C2)c(F)cc2c(=O)c(C(=O)O)cn(C3CC3)c12` (centres undefined) [GATIFLOXACIN], for which the Log10 cfu in experiment [4] is 6.14; in experiment [5], 5.82. In experiment [2], this molecule had a minimum inhibitory concentration (MIC) of 0.2 µg/mL (≈ 0.533 µM). Further, the concentration for half-maximal inhibition (IC50) in experiment [3] is 4 µg/mL (≈ 10.7 µM).
As for `COc1c(N2CCN(CN3C(=O)/C(=N\c4ccc(S(=O)(=O)Nc5ncccn5)cc4)c4cc(F)ccc43)C(C)C2)c(F)cc2c(=O)c(C(=O)O)cn(C3CC3)c12` (centres undefined), the Activity entry in experiment [1] is “Not toxic”. Further, the minimal inhibitory concentration (MIC) in experiment [2] came to 0.2 µg/mL (≈ 0.255 µM). In addition, the 50% inhibitory concentration (IC50) in experiment [3] came out at 6 µg/mL (≈ 7.65 µM).
In the case of `COc1c(N2CCN(Cn3c(O)c(/N=N/C(=N)S)c4cc(Cl)ccc43)C(C)C2)c(F)cc2c(=O)c(C(=O)O)cn(C3CC3)c12` (centres undefined), the Activity entry in experiment [1] was “Not toxic”. The MIC in experiment [2] amounted to 0.39 µg/mL (≈ 0.607 µM). This molecule also came in with an IC50 in experiment [3] of 4 µg/mL (≈ 6.23 µM).
As for `COc1c(N2CCN(CN3C(=O)/C(=N\c4ccc(S(=O)(=O)Nc5ncccn5)cc4)c4cc(C)ccc43)C(C)C2)c(F)cc2c(=O)c(C(=O)O)cn(C3CC3)c12` (centres undefined), in experiment [1], the Activity entry was “Not toxic”. This molecule also returned an MIC in experiment [2] of 0.1 µg/mL (≈ 0.128 µM). The concentration for half-maximal inhibition (IC50) in experiment [3] was 3 µg/mL (≈ 3.84 µM).
Taken in the same sequence, the figures for `COc1c(N2CCN(Cn3c(O)c(/N=N/C(=O)c4ccncc4)c4ccccc43)C(C)C2)c(F)cc2c(=O)c(C(=O)O)cn(C3CC3)c12` (centres undefined) were “Not toxic”, 0.78 µg/mL (≈ 1.19 µM) and 4 µg/mL (≈ 6.12 µM).
As for `COc1c(N2CCN(Cn3c(O)c(/N=N/C(=O)c4ccncc4)c4cc(Cl)ccc43)C(C)C2)c(F)cc2c(=O)c(C(=O)O)cn(C3CC3)c12` (centres undefined), the Activity entry in experiment [1] is “Not toxic”. This molecule also returned an MIC in experiment [2] of 0.39 µg/mL (≈ 0.567 µM). The IC50 in experiment [3] came out at 5 µg/mL (≈ 7.27 µM).
